Test results taken from ChEMBL document CHEMBL1154515, “Gamma-pyrone natural products--a privileged compound class provided by nature” (Bioorg Med Chem, 2009).
Values after ≈ are worked out from the molar mass of the structure shown. Active and inactive are the calls of the source. No cut-off for these calls is given here.

How the values were obtained:
[1] = Toxicity in ip dosed rat; type: organism-based; conditions: in vivo
[2] = system: B-cell; assay: Inhibition of LPS-induced B cell proliferation; type: functional, cell-based
[3] = target: T1, Potassium voltage-gated channel subfamily A member 3 (Homo sapiens, UniProt P22001); assay: Inhibition of voltage-gated Kv1.3 potassium channel expressed in CHO cells by 86Rb efflux experiment; type: cell-based
[4] = system: Helicobacter pylori; assay: Antimicrobial activity against Helicobacter pylori; type: functional
[5] = system: Leptinotarsa decemlineata; assay: Insecticidal activity against Leptinotarsa decemlineata; type: functional
[6] = system: T-cell; assay: Inhibition of Concanavalin A-induced T cell proliferation; type: functional, cell-based
[7] = Inhibition of NADH fumarate reductase
[8] = system: HT-1080; assay: Cytotoxicity against human HT1080 cells; type: functional, cell-based
[9] = target: T1, Potassium voltage-gated channel subfamily A member 3; assay: Antagonist activity at voltage-gated Kv1.3 potassium channel; type: functional
[10] = Depolarization of human T cells by electrophysiological method; type: functional, cell-based; conditions: T-cell
[11] = system: Leptinotarsa decemlineata; assay: Insecticidal activity against Leptinotarsa decemlineata at 1000 ppm; type: functional, organism-based

T1 sequence (P22001 whole entry): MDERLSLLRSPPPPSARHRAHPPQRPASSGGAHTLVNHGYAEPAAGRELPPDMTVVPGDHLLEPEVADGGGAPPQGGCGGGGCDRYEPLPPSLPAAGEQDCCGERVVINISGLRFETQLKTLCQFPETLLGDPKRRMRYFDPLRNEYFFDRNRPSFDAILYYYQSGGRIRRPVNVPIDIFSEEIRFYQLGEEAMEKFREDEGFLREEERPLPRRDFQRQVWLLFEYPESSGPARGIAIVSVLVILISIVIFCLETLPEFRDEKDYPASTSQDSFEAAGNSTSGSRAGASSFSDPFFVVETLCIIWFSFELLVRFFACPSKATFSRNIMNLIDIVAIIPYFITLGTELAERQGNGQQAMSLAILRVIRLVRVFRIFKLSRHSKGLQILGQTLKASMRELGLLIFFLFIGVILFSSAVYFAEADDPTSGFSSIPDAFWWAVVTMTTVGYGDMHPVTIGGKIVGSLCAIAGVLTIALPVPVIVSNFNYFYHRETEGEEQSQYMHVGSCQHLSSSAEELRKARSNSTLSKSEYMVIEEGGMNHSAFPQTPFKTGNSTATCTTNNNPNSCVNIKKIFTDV

C=C1CC[C@@H]2[C@@](C)(CCC(C)(C)O)[C@@H](O)CC[C@@]2(C)[C@H]1Cc1c(OC)oc(C)c(C(=O)OC)c1=O [COLLECTOTRICHIN A]
LD50 [1]: 16 mg/kg

COc1oc([C@H]2C[C@@]3(CO2)[C@H](c2ccc([N+](=O)[O-])cc2)[C@]2(C)C=C(C)C=C(C)[C@@H]23)c(C)c(=O)c1C
IC50 [2]: 800 nM

C=C1CC[C@@H]2[C@](C)(CC[C@H]3OC=CC[C@]23C)[C@@H]1Cc1c(OC)oc(C)c(C)c1=O [CANDELALIDE A]
IC50 [3]: 3700 nM

C/C=C(\C)[C@H](O)[C@H](C)/C=C(C)/C=C/C/C(C)=C/Cc1oc(OC)c(C)c(=O)c1C [ACTINOPYRONE A]
MIC [4]: 0.1 ng/mL (≈ 0.25 nM)

C/C=C(\C)[C@H](O)[C@H](C)/C=C(C)/C=C/C/C(C)=C/Cc1oc(OC)c(CC)c(=O)c1C [ACTINOPYRONE C]
MIC [4]: 0.1 ng/mL (≈ 0.241 nM)

C=C1CC[C@H]2[C@](C)(CCC=C(C)C)[C@@H](OC(=O)[C@H](O)[C@@H](C)CC)CC[C@]2(C)[C@@H]1Cc1c(OC)oc(C)c(C)c1=O [VIRIDOXIN B]
LC50 [5]: 50700 ng/mL (≈ 91100 nM)

COc1oc([C@@H]2C[C@@]3(CO2)[C@H](c2ccc([N+](=O)[O-])cc2)[C@]2(C)C=C(C)C=C(C)[C@@H]23)c(C)c(=O)c1C
IC50 [6]: 200 nM

C=C1CC[C@@H]2[C@](C)(CC[C@H]3OC(C(C)(C)O)=CC[C@]23C)[C@H]1Cc1c(OC)oc(C)c(C)c1=O [CANDELALIDE C]
IC50 [3]: 2500 nM

COc1oc([C@H]2C/C(=C/C(C)=C/C(C)=C/C(C)=C/c3ccc([N+](=O)[O-])cc3)CO2)c(C)c(=O)c1C [SPECTINABILIN]
IC50 [7]: 15 nM

COc1oc([C@H]2C/C(=C/C(C)=C\c3ccc([N+](=O)[O-])cc3)CO2)c(C)c(=O)c1C [ALLOAUREOTHIN]
IC50 [8]: 30000 nM

C=C1CC[C@H]2[C@](C)(CCC=C(C)C)[C@@H](OC(=O)[C@H](OC)[C@@H](C)CC)CC[C@]2(C)[C@@H]1Cc1c(OC)oc(C)c(C)c1=O [VIRIDOXIN A]
LC50 [5]: 39700 ng/mL (≈ 69600 nM)

C=C1CC[C@H]2[C@](C)(CCC=C(C)C)[C@@H](OC(C)=O)CC[C@]2(C)[C@@H]1Cc1c(OC)oc(C)c(C)c1=O [NALANTHALIDE]
IC50 [9]: 3900 nM | EC50 [10]: 500 nM

C=C1CC[C@@H]2[C@](C)(CC[C@H]3OC(C(C)(C)O)=C(O)C[C@]23C)[C@@H]1Cc1c(OC)oc(C)c(C)c1=O [CANDELALIDE B]
IC50 [3]: 1200 nM

C=C1CC[C@@H]2[C@](C)(CC[C@H](O)[C@@]2(C)CCC=C(C)C)[C@@H]1Cc1c(OC)oc(C)c(C)c1=O
Activity [11]: inactive

C/C=C(\C)[C@H](O)[C@H](C)/C=C(C)/C=C/C/C(C)=C/Cc1oc(OC)cc(=O)c1C [ACTINOPYRONE B]
MIC [4]: 0.1 ng/mL (≈ 0.259 nM)
